System: uterine weight, immature rats
Assay: In vivo uterotropic activity
Set-up: species or system rat
Settings: 0.2 and 2 mg/kg, three days, S.C.
Procedure: Immature rats were treated with doses of 0.2 and 2 mg/kg 5,7,9-estratriene-3β,17β-diol for three days (S.C.) as well as additional groups (n=6) of rats treated with 0.5 μg ethinyl estradiol and vehicle as positive and negative controls, respectively.

## C[C@]12CCc3c(ccc4c3CC[C@H](O)C4)[C@@H]1CC[C@@H]2O [5,7,9-estratriene-3β,17β-diol]
  uterine weight: uterine weight gains at both concentrations
